Reference: patent publication US10472677B2, “Translational dysfunction based therapeutics” (Translational Therapeutics, Inc., priority 2005, dated 2019)
Where “and” joins values, the source holds several entries; their conditions need not be identical. Equal values may be shown once. Entries after “also recorded” stand apart in the source; their conditions may differ. Values belong to the molecule of their own block, whether it stands above or below them. Starred links: 1 amine or outer side, 2 acyl side, 3 side chain; linkers in the order of their positions; H or OH if unused. Positions of bridges follow the written chain, without caps; N, C: chain ends. Non-standard residues stand in square brackets, D forms with d. Residues, ends and D or L forms follow the SMILES beside them. Chains are numbered I, II in the order given. Actinocin(9to1) = Cc1c2oc3c(C)ccc(C(=O)[*:1])c3nc-2c(C(=O)[*:2])c(N)c1=O; NMeV = CN[C@H](C(=O)O)C(C)C; Sar = CNCC(=O)O

How the values were obtained:
[1] = molecular target: T1, nuclear eIF4E-cyclin D1 mRNA association (Homo sapiens, UniProt P06730); test: eIF4E immunoprecipitation from nuclear lysates with cap analogue competition, RT-PCR; format: biochemical; settings: 50 uM analogue
T1 construct: endogenous in cells; host or cells: HEK293T cells, nuclear lysate
T1 sequence (P06730 2-217 limits assumed): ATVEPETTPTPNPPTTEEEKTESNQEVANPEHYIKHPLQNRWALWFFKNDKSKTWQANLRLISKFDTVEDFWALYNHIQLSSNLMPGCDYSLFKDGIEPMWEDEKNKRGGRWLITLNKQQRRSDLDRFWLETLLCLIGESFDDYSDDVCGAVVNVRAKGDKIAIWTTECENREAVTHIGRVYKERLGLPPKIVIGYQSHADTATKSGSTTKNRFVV

[2] = tested on: cap-driven translation; settings: cited from earlier work
[3] = molecular target: T2, eIF4E wild-type (Mus musculus, UniProt P63073); test: tryptophan fluorescence quenching titration of nucleoside/nucleotide binding
T2 construct: made in house
T2 sequence (P63073 whole entry): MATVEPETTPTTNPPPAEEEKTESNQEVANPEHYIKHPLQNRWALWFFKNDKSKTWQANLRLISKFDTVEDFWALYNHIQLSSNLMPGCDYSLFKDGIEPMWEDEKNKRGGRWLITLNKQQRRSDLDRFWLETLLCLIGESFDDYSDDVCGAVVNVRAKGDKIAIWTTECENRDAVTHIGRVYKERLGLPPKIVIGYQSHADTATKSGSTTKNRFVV
Method: For fluorescence titrations, mouse eIF4E, which differs from human eIF4E by four nonconserved amino acids, was produced as described. For NMR spectroscopy, mouse eIF4E was expressed as a fusion with the B1 domain of protein G (G4E, kind gift of Gerhard Wagner, Harvard University, Cambridge, Mass.), in BL21 (DE-3) cells by induction with 0.8 mM isopropyl-β-D-thiogalactopyranoside at 18° C. for 20 h in M9 minimal media containing 1 g/l ^15NH4Cl as the sole nitrogen source (Cambridge Isotopes). Cells were lysed at 4° C. by sonication in 0.1 M NaCl/50 mM Tris.HCl (pH 7.5/0.5 mM EDTA/0.5% (vol/vol) Nonidet P-40/10 mM 2-mercaptoethanol/1 mM PMSF. Lysates were cleared by centrifugation at 30,000×g, adsorbed onto m^7G diphosphate-conjugated agarose (Amersham Pharmacia), and extensively washed with 0.1 M NaCl/20 mM Tris.HCl (pH 7.5)/0.5 mM EDTA (Buffer A) at 4° C. Subsequently, beads were washed with 0.1 mM GTP in Buffer A, and G4E was eluted with 5 mM m^7G in Buffer A. Eluate was diluted with 20 mM Na2PO4 (pH 7.5) to reduce NaCl concentration to 50 mM, applied to Sepharose Q anion exchange column (Amersham Pharmacia), and eluted with a linear gradient of NaCl in 20 mM Na2PO4 (pH 7.5) at 4° C. Eluate was dialyzed extensively against 0.1 M NaCl/50 mM Na2PO4 (pH 6.5)/5 mM DTT at 4° C. to produce apo-G4E, as verified by using NMR spectroscopy and fluorescence titrations. Purity and identity of G4E were verified by using SDS/PAGE and electrospray ionization MS. Proteins were concentrated by using Amicon concentrators (Millipore).
Fluorescence measurements were performed by using a home-built fluorimeter, as described. All titrations were performed in 0.3 M NaCl/10 mM Na2PO4 (pH 7.5)/1 μM zinc in 0.3×0.3 cm^2 fluorescence cuvette (Hellma), by using eIF4E concentration of 2 μM. […] Corrected relative fluorescence intensities were normalized, and fluorescence quenching curves were fit to a heuristic single-site-binding expression: I/I0=Kd^n/(x^n+Kd^n) where x is ligand concentration, Kd is the apparent dissociation constant, and n is the Hill coefficient.

[4] = molecular target: T3, eIF4E:m7G binding (G4E) (UniProt P06654+P63073); test: m7G-Sepharose affinity chromatography competition; set-up: species or system mouse
T3 construct: made in house; host or cells: E. coli BL21 (DE-3); construct a gift of Gerhard Wagner
T3 sequence (P06654+P63073 fused): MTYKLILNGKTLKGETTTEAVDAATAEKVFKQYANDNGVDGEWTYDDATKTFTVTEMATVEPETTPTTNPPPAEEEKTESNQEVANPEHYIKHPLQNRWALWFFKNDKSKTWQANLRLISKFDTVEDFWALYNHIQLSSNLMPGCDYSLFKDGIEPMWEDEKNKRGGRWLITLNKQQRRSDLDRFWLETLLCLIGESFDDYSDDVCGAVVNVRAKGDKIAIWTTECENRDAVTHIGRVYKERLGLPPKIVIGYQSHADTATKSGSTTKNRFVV
Method: FIG. 9. […] Washed beads (three times with 75 bed volumes) were incubated with 50 uM of compounds as indicated for 30 min at room temperature. Beads were washed (three times with 75 bed volumes) to remove dissociated eIF4E, and eIF4E remaining bound to beads was resolved using SDS-PAGE, and visualized using Western blotting and chemiluminescence. […] Washed beads (five times with 50 bed volumes of LCB buffer) were incubated with 5 bed volumes of 50 uM of compounds as indicated for 20 min at 4° C. Then 20 uL of the supernatant containing dissociated eIF4E was transferred to a new tube, cleared of trace beads containing bound eIF4E, and resolved using SDS-PAGE, and visualized using Western blotting and chemiluminescence.
m^7G-Sepharose beads (Amersham Pharmacia, 20-μl slurry) were bound with 1.5 ml of 2 μM G4E, purified as described above, in 0.3 M NaCl/0.1 M sodium phosphate (pH 7.5)/10 μM protease-free BSA (USB)/0.1% Nonidet P-40 (Buffer B) for 30 min at room temperature. […] Upon washing released G4E three times with Buffer B, G4E remaining bound to m^7G-Sepharose was boiled in Laemmli buffer (10% glycerol/2% SDS/100 mM DTT/80 mM Tris.HCl/0.06% bromophenol blue, pH 6.8), subjected to SDS/PAGE, and visualized by using Western blotting, as described below.

[5] = molecular target: HCV polymerase (Hepatitis C virus genotype 1a, UniProt P27958); settings: read-out: dissociation constant for HCV polymerase; cited from earlier work
Chain of HCV polymerase (P27958 2421-3011): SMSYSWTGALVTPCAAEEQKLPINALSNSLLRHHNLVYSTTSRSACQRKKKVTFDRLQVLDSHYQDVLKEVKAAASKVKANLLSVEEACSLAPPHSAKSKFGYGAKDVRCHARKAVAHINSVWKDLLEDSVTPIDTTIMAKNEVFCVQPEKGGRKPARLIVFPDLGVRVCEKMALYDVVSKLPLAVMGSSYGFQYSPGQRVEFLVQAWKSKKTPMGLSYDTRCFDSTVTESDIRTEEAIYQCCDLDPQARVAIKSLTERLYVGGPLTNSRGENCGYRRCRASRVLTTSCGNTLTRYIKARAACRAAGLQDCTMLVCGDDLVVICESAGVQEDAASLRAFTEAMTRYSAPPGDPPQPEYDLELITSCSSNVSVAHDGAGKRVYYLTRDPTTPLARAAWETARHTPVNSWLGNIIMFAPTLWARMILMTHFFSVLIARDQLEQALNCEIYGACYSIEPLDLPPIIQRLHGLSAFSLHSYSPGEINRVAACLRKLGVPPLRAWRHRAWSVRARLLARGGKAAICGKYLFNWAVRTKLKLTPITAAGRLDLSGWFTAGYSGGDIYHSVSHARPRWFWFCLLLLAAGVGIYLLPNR

[6] = molecular target: eIF4E (Homo sapiens, UniProt P06730); settings: cited from earlier work
Chain of eIF4E (P06730 whole entry, species assumed): as the sequence (P63073 whole entry) above, with T12P, P16T, A17T, D174E counted along it

[7] = tested on: 4E-SE mRNA export; test: export of LacZ-4E-SE mRNA (c/n ratio, real time PCR) in eIF4E overexpressing U2OS cells; format: cell-based, human; settings: for export of 4E-SE containing / cyclin D1 mRNA under inhibition of RNA or protein synthesis: actinomycin D 10 μg/ml, cycloheximide 100 μg/ml, 1 hour
Method: eIF4E and PML stably transfected NIH3T3 and U937 cells were as described (Topisirovic et al., 2002; Topisirovic et al., 2003a). U937 cells were used to analyze endogenous Pim1, which is not expressed in NIH3T3 cells. LacZ/LacZ-4E-SE with or without 2Flag-eIF4E as well as TetON LacZ system were stably transfected in U2OS cells. For NXF1 depletion, U2OS cells were transfected with Lipofectamine 2000 and 10 nM siRNA duplex HSC.RNAI.N006362.1.3 (IDT) according to the manufacturer's instruction. Cells were analyzed 72 h after transfection. Actinomycin D, cycloheximide and leptomycin B were all cell culture grade (Sigma).
Immunopurification was as previously published (Culjkovic et al., 2005). Real Time PCR analyses were performed using Sybr Green PCR Master mix (ABI) in Mx3000P™ thermal cycler (Stratagene), and data analyzed with MxPro software (Stratagene). All conditions were described previously (Culjkovic et al., 2005). All calculations were done using the relative standard curve method described in Applied Biosystems User Bulletin #2.
Fractionation and RNA isolation were as described (Lai and Borden, 2000; Topisirovic et al., 2002). Probes for U6 and tRNAlys for Northern blot analysis were previously described (Topisirovic et al., 2002).

[8] = molecular target: cap-binding complex (CBC) (Homo sapiens, UniProt P52298); settings: cited from earlier work
Chain of cap-binding complex (CBC) (P52298 whole entry): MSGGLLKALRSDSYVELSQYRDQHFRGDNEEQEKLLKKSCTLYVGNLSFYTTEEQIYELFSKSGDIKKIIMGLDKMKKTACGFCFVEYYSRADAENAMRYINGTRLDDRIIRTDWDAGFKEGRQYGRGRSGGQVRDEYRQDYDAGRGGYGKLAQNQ
Chain of cap-binding complex (CBC) (Q09161 whole entry partner): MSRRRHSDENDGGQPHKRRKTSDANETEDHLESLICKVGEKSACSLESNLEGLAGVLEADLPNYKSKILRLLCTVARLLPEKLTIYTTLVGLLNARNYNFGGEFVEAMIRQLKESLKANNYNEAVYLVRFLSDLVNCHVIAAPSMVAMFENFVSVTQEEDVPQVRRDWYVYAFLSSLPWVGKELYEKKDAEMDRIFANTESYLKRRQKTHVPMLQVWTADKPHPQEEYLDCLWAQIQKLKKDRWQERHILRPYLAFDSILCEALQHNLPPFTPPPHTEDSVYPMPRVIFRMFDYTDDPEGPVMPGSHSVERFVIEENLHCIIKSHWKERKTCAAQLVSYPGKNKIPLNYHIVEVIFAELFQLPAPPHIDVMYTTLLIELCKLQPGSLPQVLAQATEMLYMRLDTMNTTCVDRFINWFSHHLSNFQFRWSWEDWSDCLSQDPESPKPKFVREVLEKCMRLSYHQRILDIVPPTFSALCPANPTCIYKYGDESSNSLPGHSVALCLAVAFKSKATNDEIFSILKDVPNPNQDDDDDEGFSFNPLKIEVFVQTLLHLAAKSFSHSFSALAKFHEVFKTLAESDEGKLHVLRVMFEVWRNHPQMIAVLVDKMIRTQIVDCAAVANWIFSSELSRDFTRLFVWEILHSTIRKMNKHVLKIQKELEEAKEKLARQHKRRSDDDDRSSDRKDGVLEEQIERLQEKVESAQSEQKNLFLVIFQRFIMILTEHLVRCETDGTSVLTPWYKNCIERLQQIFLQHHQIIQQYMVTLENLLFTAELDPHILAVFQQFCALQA

association of cyclin D1 mRNA with nuclear eIF4E [1]: does not disrupt
SMILES: Nc1nc2c(ncn2[C@@H]2O[C@H](COP(=O)(O)OP(=O)(O)OP(=O)(O)OC[C@H]3O[C@@H](n4cnc5c(=O)[nH]c(N)nc54)[C@H](O)[C@@H]3O)[C@@H](O)[C@H]2O)c(=O)[nH]1 [GpppG]

SMILES: Cn1c[n+]([C@@H]2O[C@H](COP(=O)(O)OP(=O)([O-])O)[C@@H](O)[C@H]2O)c2nc(N)[nH]c(=O)c21 [m7GDP]
reduction of cap-driven firefly luciferase activity ([2]; 1 mM, Yan et al. 2005): fourfold

SMILES: NC(=O)c1ncn([C@@H]2O[C@H](CO[P@@](=O)(O)O[P@](=O)(O)OP(=O)(O)O)[C@@H](O)[C@H]2O)n1 [RTP, Ribavirin-5′ triphosphate]
Kd ([3]; fluorescence spectroscopy, wild-type eIF4E, read-out: apparent dissociation constant (Kd) for eIF4E): 130 nM and ~100 nM
competition with m7G binding, protocol of Yan et al. ([4]; 0.1 M KCl, 10 mM HEPES-KOH pH 8.0, presumed 4 C): apparent failure of RTP to compete
competition with eIF4E:m7G binding ([4]; 0.3 M NaCl, 0.1 M sodium phosphate pH 7.5, room temperature, micromolar concentrations): compete with the binding of eIF4E:m7G
IC50 ([4]; Western blot of eIF4E remaining bound, read-out: concentration giving 50% reduction of eIF4E binding to m7G-Sepharose): ~1000 nM
Ki ([4]; read-out: apparent inhibition constant (Ki) of eIF4E:m7G binding): ~300 nM
Kd [5]: 580000 nM

SMILES: Nc1nc2c(ncn2[C@@H]2O[C@H](CO)[C@@H](O)[C@H]2O)c(=O)[nH]1 [guanosine]
binding to eIF4E relative to m7G cap, fold weaker [6]: > 5000 fold

SMILES: C[C@@H]1C[C@@H]([C@H](O)CC2CC(=O)NC(=O)C2)C(=O)[C@@H](C)C1 [cycloheximide]
export of 4E-SE containing / cyclin D1 mRNA under inhibition of RNA or protein synthesis [7]: not modulated

association of cyclin D1 mRNA with nuclear eIF4E [1]: successfully disrupts
SMILES: Cn1c[n+]([C@@H]2O[C@H](COP(=O)(O)OP(=O)([O-])OP(=O)(O)OC[C@H]3O[C@@H](n4cnc5c(=O)[nH]c(N)nc54)[C@H](O)[C@@H]3O)[C@@H](O)[C@H]2O)c2nc(N)[nH]c(=O)c21 [m7GpppG]
Kd [8]: ~10 nM
analog concentration inhibiting cap-driven translation ([2]; Westman et al. 2005): ca. 0.1 mM

SMILES: Cc1c2oc3c(C)ccc(C(=O)N[C@@H]4C(=O)N[C@H](C(C)C)C(=O)N5CCC[C@H]5C(=O)N(C)CC(=O)N(C)[C@@H](C(C)C)C(=O)O[C@@H]4C)c3nc-2c(C(=O)N[C@@H]2C(=O)N[C@H](C(C)C)C(=O)N3CCC[C@H]3C(=O)N(C)CC(=O)N(C)[C@@H](C(C)C)C(=O)O[C@@H]2C)c(N)c1=O [actinomycin D] (I: T[dV]P[Sar][NMeV] / II: T[dV]P[Sar][NMeV]; ester I:1-I:C, II:1-II:C; linker I:N-II:N via Actinocin(9to1))
export of 4E-SE containing / cyclin D1 mRNA under inhibition of RNA or protein synthesis [7]: did not affect export

SMILES: NC(=O)c1ncn(C2OC(COP(=O)(O)OP(=O)(O)OP(=O)(O)OCC3OC(n4cnc5c(=O)[nH]c(N)nc54)C(O)C3O)C(O)C2O)n1 (centres unmarked) [RpppG]
inhibition of cap-driven translation ([2]; Westman et al. 2005): does not

SMILES: CCC(=C/[C@H](C)C/C=C/C(C)=C/[C@@H](C)C(=O)[C@@H](C)[C@H](O)[C@@H](C)C/C(C)=C/C(=O)O)/C=C/[C@@H]1OC(=O)C=C[C@@H]1C [LMB]
export of LacZ-4E-SE mRNA ([7]; 10 ng/ml for 4 h): sensitive to LMB; also recorded: suppressed export

SMILES: NC(=O)c1cn([C@@H]2O[C@H](CO)[C@@H](O)[C@H]2O)nn1 [Rib4C, 1-β-D-ribofuranosyl-1,2,3-triazole-4-carboxamide]
binding to eIF4E ([3]; in vitro): failed to bind eIF4E
